# In patent US20110098257A1, “DERIVATIVES OF 4- OR 5-AMINOSALICYLIC ACID” (ANTIBE THERAPEUTICS INC., priority 2005, published 2011):
# Where a name gives a salt, the structure may show the parent alone.
# Experiments:
# [1] = test system: leukocyte adherence in mesenteric post-capillary venules; test: Leukocyte adherence to the vascular endothelium in vivo (intravital microscopy, aspirin-induced); parameters: species or system Rats
# Method: Leukocyte adherence was studied using intravital microscopy, as described in detail previously (Wallace et al., (1993) Am. J. Physiol. 265: 993-998, incorporated hereto by reference). Rats were anesthetized with pentobarbital sodium (60 mg/kg i.p.) and cautery incisions were made along the abdominal region. A tracheotomy was performed to facilitate breathing. The rats were placed in a supine position, and a segment of the mesentery was exteriorized through the abdominal incision. The mesentery was carefully placed over an optically clear viewing pedestal that allowed for trans-illumination of a 2-cm^2 segment of tissue. All exposed tissue was covered with saline-soaked gauze to minimize dehydration. The temperature of the pedestal was kept at 37° C. and the mesentery was superfused with warmed bicarbonate-buffered saline (pH 7.4). An intravital microscope (Nikon L25/0.35) and a ×10 eyepiece were used to observe the mesenteric microcirculation. Post-capillary venules with diameters ranging from 20 to 40 μm were selected for the study. A video camera mounted on the microscope (Panasonic™ digital 5000) projected the image onto a monitor, and the images were recorded for playback analysis using a videocassette recorder. Images of the mesenteric microcirculation were recorded 5 minutes prior to aspirin administration (baseline), at the time of aspirin administration (time 0-5) and every 15 minutes for 60 minutes. Leukocyte adherence was blindly quantified from videotaped images of the vessels made over 5-min periods as the number of leukocytes that remained stationary along the vessel wall for 30 s or more (expressed per 100 μm venule length). Groups of rats (at least 5 in each) were pretreated with Compound XXXV (130 mg/kg), Compound XXVII (100 mg/kg), mesalamine (50 mg/kg), or vehicle 60 min prior to aspirin (or vehicle) administration. These drugs were given intragastrically. In some experiments, rats were treated with glibenclamide (10 mg/kg i.p.) or vehicle 30 min prior to administration of these compounds.
# [2] = test system: visceral pain in response to colorectal distension; test: Rat model of visceral pain perception (colorectal distension, AWR score); assay type: in vivo, Rats (male, Wistar); details: for pain perception: equimolar doses: mesalamine 50, Compound XXXV 130, ADT-OH 80, Compound XXVII 100, 4-HTB 50 mg/kg; for pain perception / pain perception score: vs vehicle-treated group; for pain perception score after glibenclamide pretreatment / pain perception score: 0.8 mL colorectal distention, 100 mg/kg, FIG. 17; for pain perception score after glibenclamide pretreatment: glibenclamide 10 mg/kg i.p. 30 min before
# Method: A rat model of visceral pain perception, a pre-clinical model of irritable bowel syndrome, was used in the following example. Rats (male, Wistar, 200-250 g, obtained from Charles River, Monza, Italy), were housed in plastic cages and maintained under controlled conditions with 12-hours light/dark cycle with lights on at 7.00 AM. Tap water and standard laboratory chow were freely available. Before experiments, rats were individually trained by spending 2-3 hours per day in a plexiglass cage for 2-3 days. It allowed them to adjust to a movement-restriction environment. Food was withheld for 12 hours before colorectal distension (CRD) recording were performed. Experiments were performed in awake rats and were conducted in a blind manner in that the observer was not aware of the identity of drug administered to each animal.
# In the testing day, rats were sedated with ether inhalation and a 2 cm long latex balloon was inserted intrarectally 2 cm from the anal verge and fixed at the base of the tail. The balloon was connected via a double-barreled cannula to a pressure transducer to continuously monitoring the rectal pressure by a computer (PowerLab PC, A.D. Instruments, Milford, Mass., USA) and to a syringe for inflation/deflation of the balloon. The rats were then housed in a small cage (20×8×8 cm) on an elevated Plexiglas™ platform and allowed to wake up and adapt for 1 hour. After recovery from sedation, animals underwent the CRD procedure and behavioral responses were tested. The night before the experiments, the balloons were inflated and left overnight so the latex stretched and the balloons became compliant.
# CRD of 20 seconds, performed every 5 minutes, was applied in increment of 0.4 ml starting from 0.4 ml up to 1.6 ml water. To achieve an accurate measurement of the colonic parameters and perception, the distensions were repeated twice for each intensity and data for each animal were averaged for analysis. Each animal underwent a double set of CRD. Twenty minutes after the first sequence of CRD (0.4 mL-1.6 ml water), drugs were administered intraperitoneally (i.p.) and a second set of CRD was performed. Behavioral responses during the first and the second set of CRD were assessed and compared.
# Behavioral response to CRD was assessed by measuring the abdominal withdrawal reflex (AWR) using a semiquantitative score (1).
# The effects of mesalamine and Compound XXXV on colonic compliance and sensitivity were determined using a total of 8 fasting rats. To investigate whether the administration of mesalamine and Compound XXXV could revert pain induced by CRD, after the first sequence of CRD, […], after which a second set of CRD was repeated.
# To determine the effect of mesalamine or Compound XXXV on colonic smooth muscle, the compliance of the colo-rectum during CRD was obtained from intracolo-rectal volume and pressure and expressed as mL/mmHg.
# All data are presented as the mean±SEM, with sample sizes of 4 rats/group; statistical comparison of paired data was performed by the Wilcoxon signed rank test. An associated probability (p value) of less that 5% was considered significant.
# A rat model of visceral pain perception as described above was used to compare pain perception scores for both Compound XXXV and Compound XXVII with or without glibenclamide, an inhibitor of ATP-sensitive K^+ (KATP) channels.
# [3] = test system: PE (1 μM) precontracted rings of thoracic aorta; test: Vasorelaxant effect on PE precontracted thoracic aorta rings; parameters: species or system CD-1 mice; details: cumulative concentration-response 10 nM-3 mM, endothelium present, vs vehicle; FIG. 22
# Method: CD-1 mice were sacrificed and thoracic aorta was rapidly dissected and cleaned from fat and connective tissue. […] Changes in isometric tension were recorded with PowerLab™ data acquisition system (Ugo Basile, Italy). […] Rings were initially stretched until a resting tension of 1.5 g was reached and allowed to equilibrate for at least 40 minutes during which tension was adjusted, when necessary, to 1.5 g and bathing solution was periodically changed.
# Vehicle represents buffer but no compound. Curves to tested compounds were constructed in presence of endothelium.
# Data obtained are shown in FIG. 22 and are expressed as mean±SEM. The level of statistical significance was determined by 2-way analysis of variance (ANOVA) followed by Bonferroni's test for multiple comparison, using the GraphPad™ software.
# [4] = test system: mice having TNBS-induced colitis; test: TNBS-induced colitis in mice (disease activity score, colonic MPO activity); assay type: in vivo, Balb/c mice
# Method: A standard experimental animal model of colitis induced by intracolonic administration of 2,4,6-trinitrobenzene sulfonic acid (TNBS) to mice is used in the following example. A detailed description of this model has been published (Santucci et al. (2003) Gastroenterology 124:1381-94) and is incorporated herein by reference. Briefly, 6-8 week old Balb/c mice were given TNBS intracolonically at a dose of 1.5 mg in 0.1 mL of 30% ethanol. The mice were randomized to the various treatment groups (n=6 per group). Beginning one hour later and continuing every 12 h for 5 days, the mice were treated orally with vehicle (1% carboxymethylcellulose (CMC)), 5-ASA (mesalamine) (25, 50 or 75 mg/kg) or with equimolar doses of 2-hydroxy-5-amino-benzoic acid 4-(thioxo-5H-[1,2]dithiol-3-yl)-phenyl ester hydrochloride (Compound XXXV) (130 mg/kg), or with […] (100 mg/kg), 50% (66 mg/kg) and 25% (33 mg/kg) of that dose. The mice were evaluated (blindly) on the final day of the study for the presence of diarrhea and fecal occult blood, and their body weights were measured. […] After sacrifice, a sample of the colon was excised for measurement of myeloperoxidase (MPO) activity, as a marker of granulocyte infiltration. All results were compared to those obtained with healthy mice as well.
# FIGS. 3 and 4 show the Disease Activity Index and MPO activity, respectively, using the same experimental animal model of colitis as described above, in which Compound XXXV (130 mg/kg) was compared to equimolar doses of its two constituents, mesalamine (50 mg/kg) and 5-p-hydroxyphenyl-[…] (ADT-OH) (80 mg/kg), and a mixture of mesalamine (50 mg/kg) and ADT-OH (80 mg/kg). *p<0.05 versus the vehicle-treated group. Each group consisted of at least 5 rats.
# FIGS. 6 and 7 show the Disease Activity Index and MPO, respectively, using the same experimental animal model of colitis as described above, in which Compound XXVII (100 mg/kg) was compared to equimolar doses of its two constituents, mesalamine (50 mg/kg) and 4-hydroxythiobenzamide (4-HTB) (50 mg/kg), mesalamine alone (50 mg/kg) and 4-HTB alone (50 mg/kg). *p<0.05 versus the vehicle-treated group. Each group consisted of at least 5 rats.
# The same model was used as described above. In this example, the effects of mesalamine (50 mg/kg) were compared to those of equimolar doses of Compound XXXV. In addition to measuring the severity of colitis by measuring disease activity score and MPO activity, tissues were processed for measurement of a number of genes for inflammatory cytokines and other mediators.
# [5] = after patients have taken the usual doses; Dig. Dis. Sci. 1989; 34: 573-578; cited from earlier work
compound,measurement,setting,value
"CC(=O)Oc1ccccc1C(=O)O [Aspirin, aspirin, reference compound]",leukocyte adherence after intragastric aspirin,"[1]; vs baseline period / vehicle+vehicle group, FIG. 19",markedly increased leukocyte adherence
"NC(=S)c1ccc(O)cc1 [Compound 4-HTB, 4-hydroxythiobenzamide, reference compound]",pain perception,[2],Only Compound XXXV and Compound XXVII significantly reduced pain perception
same,vasorelaxant effect (% relaxation),[3],"significant vasorelaxant effects, which were concentration dependent"
"NC(=S)c1ccc(OC(=O)c2cc(N)ccc2O)cc1 [Compound XXVII, 5-Amino-2-hydroxy-benzoic acid 4-thiocarbamoyl-phenyl ester]",Disease Activity Index,"[4]; Compound XXVII 100 mg/kg vs mesalamine 50 mg/kg, 4-HTB 50 mg/kg and their mixture, FIG. 5","almost three times as effective as either mesalamine alone, 4-HTB alone or a mixture of mesalamine and 4-HTB"
same,MPO activity (granulocyte infiltration),"[4]; Compound XXVII 100 mg/kg, FIG. 6",significantly reduced inflammation
same,pain perception score after glibenclamide pretreatment,[2],reversed by pretreatment with glibenclamide
same,pain perception score,[2],significantly reduced the pain perception
same,pain perception,[2],significantly reduced pain perception
same,"aspirin-induced leukocyte adherence, final time period","[1]; minutes 60-65, Compound XXXV 130 mg/kg, Compound XXVII 100 mg/kg, FIG. 20",suppress aspirin-induced leukocyte adherence
same,"aspirin-induced leukocyte adherence, final time period, with glibenclamide pretreatment","[1]; minutes 60-65, glibenclamide 10 mg/kg i.p., FIG. 20",glibenclamide pretreatment to reverse this inhibitor effect
same,melting point,,193 to 195 °C
"Oc1ccc(-c2cc(=S)ss2)cc1 [ADT-OH, 5-p-hydroxyphenyl-1,2-dithione-3-thione, reference compound]",pain perception,[2],Only Compound XXXV and Compound XXVII significantly reduced pain perception
"COc1ccc(Cl)cc1C(=O)NCCc1ccc(S(=O)(=O)NC(=O)NC2CCCCC2)cc1 [Glibenclamide, glibenclamide, reference compound]","leukocyte adherence, glibenclamide alone","[1]; glibenclamide 10 mg/kg i.p., no aspirin, FIG. 19",did not affect leukocyte adherence
same,aspirin-induced increase in leukocyte adherence,"[1]; pretreatment: Compound XXXV 130 mg/kg or mesalamine 50 mg/kg intragastrically 60 min prior to aspirin, glibenclamide 10 mg/kg i.p., FIG. 19",did not affect the magnitude of aspirin-induced leukocyte adherence
CC(=N)S [thioacetamide],vasorelaxant effect (% relaxation),[3],"significant vasorelaxant effects, which were concentration dependent"
"Nc1ccc(O)c(C(=O)O)c1 [mesalamine, 5-aminosalicylic acid]",pain perception score after glibenclamide pretreatment,[2],did not affect the pain perception
same,pain perception score,[2],had no significant effect
same,pain perception,[2],Only Compound XXXV and Compound XXVII significantly reduced pain perception
same,aspirin-induced leukocyte adherence with glibenclamide pretreatment,"[1]; glibenclamide 10 mg/kg i.p. 30 min prior to the compound, compound plus aspirin, FIG. 19",no effect
same,mesalamine concentration in the colonic lumen,[5],up to 5 mM
"Nc1ccc(O)c(C(=O)Oc2ccc(-c3cc(=S)ss3)cc2)c1 (as salt: hydrochloride) [Compound XXXV, 5-Amino-2-hydroxy-benzoic acid 4-(5-thioxo-5H-[1,2]dithiol-3-yl)-phenyl ester]",melting point,,93 to 95 °C
